Test results: PMC5483587 (Frontiers in Microbiology, 2017)

System: T1, LkAlt1
T1 construct: ORF amplified from genomic DNA into pET-28a(+) (NheI/XhoI), His-tagged, E. coli Rosetta2(DE3), Ni-NTA; tag removal not mentioned; about 50 kDa on SDS-PAGE
Test: initial velocities at […] nm (lactate dehydrogenase/NADH coupled), global ping-pong fit
Assay type: biochemical, Lachancea kluyveri
Conditions: alanine varied 1-20 mM, α-ketoglutarate 0.05-1.50 mM; Tris-HCl about pH 7, 25°C; pyridoxal 5'-phosphate; ka/kb assigned to substrates by concentration ranges and text

ka [mM] | Km [µM] | Structure (SMILES)
4.88 | – | C[C@H](N)C(=O)O [alanine]
– | 220 | O=C(O)CCC(=O)C(=O)O [α-ketoglutarate]
